Tests used:
PI3Kγ and δ = test system: PI3Kγ and δ; set-up: method as in PMID 20505158; details: read-out: IC50s in inhibiting PI3K activity; cited from earlier work
MM cell [1] = test system: MM cell; set-up: method as in PMID 20505158; details: cited from earlier work
MM cell [2] = test system: MM cell; set-up: method as in PMID 24013662; details: cited from earlier work
[3] = test system: AKT phosphorylation in LP1 and JJN3 cells; test: IGF-1-stimulated AKT phosphorylation, immunoblotting (Figure 3A); type: cell-based; details: 100 μM, 2 hrs, IGF-1 15 min
Protocol: To elucidate this specificity, we first evaluated its effects on IGF-1R because IGF-1R as a receptor tyrosine kinase activates PI3K in the presence of IGF-1. To exclude the potential effects of C96 on IGF-1 signaling, LP1 and JJN3 cells were starved overnight followed by C96 or S14161 treatment for 2 hrs, and IGF-1 stimulation for 15 min. As expected, IGF-1 triggered AKT phosphorylation but it was suppressed by both C96 and the proven PI3K inhibitor S14161 without affecting total AKT expression (Figure 3A). […] Next, we evaluated other kinases including non-receptor kinase c-Src and a PI3K parallel kinase ERK which transduces external cellular signals. Both LP1 and JJN3 cells were treated with C96 at increasing concentrations that inhibited AKT and mTOR activation (Figure 2C).
Figure 3 C96 inhibits AKT but not IGF-1R, ERK or c-Src kinase activation (A) LP1 and JJN3 cells were starved overnight, then treated with 100 (μM of C96 or S14161 for 2 hrs, followed by IGF-1 (100 ng/mL) for 15 min. After incubation, cells were harvested and the expression of p-AKT, p-IGF-1R, total AKT (T-AKT), and IGF-1R proteins were detected by immunoblotting. (B) LP1 and JJN3 were treated with C96 at indicated concentrations for 24 hrs followed by immunoblotting assay for the expression of p-Src, c-Src, p-ERK, and ERK. GAPDH was used as a loading control. […]

CC[C@H](Nc1ncnc2[nH]cnc12)c1nc2cccc(F)c2c(=O)n1-c1ccccc1 [CAL-101]
IC50 (PI3Kγ and δ): ~2.5 nM
concentration needed to induce MM cell death (MM cell [1]): more than 10 μM

COc1c(OCCCN2CCOCC2)ccc2c1N=C(NC(=O)c1cnc(N)nc1)N1CCN=C21 [BAY80-6946]
concentration required to inhibit MM cell proliferation (MM cell [2]): more than 1000 nM

CCOc1cccc2c1OC(c1ccc(F)cc1)C([N+](=O)[O-])=C2 (stereo not shown) [S14161, reference compound]
AKT phosphorylation triggered by IGF-1 [3]: suppressed
